Laboratory results reported in ChEMBL document CHEMBL3272074, “A new class of diuretics with the 1,4-dioxino(2,3-g)quinolone structure” (J Med Chem, 1976).
Calls of active or inactive are those of the source. The rule behind the calls is not given here.

Experiments:
[1] = tested on: Rattus norvegicus; assay: Diuretic activity in po dosed albino Wistar-TNO rat assessed as 100% increase in urinary volume measured for 5 hrs; type: functional, Urine
[2] = tested on: Rattus norvegicus; assay: Diuretic activity in albino Wistar-TNO rat assessed as increase in urinary volume at 50 mg/kg, po measured for 5 hrs; type: functional, organism-based; design: dose 50 mg/kg; conditions: Urine
[3] = tested on: Rattus norvegicus; assay: Diuretic activity in po dosed albino Wistar-TNO rat assessed as rapid onset of action; type: functional, organism-based; conditions: Urine
[4] = tested on: Rhesus monkey; assay: Diuretic activity in rhesus monkey; type: functional, organism-based; conditions: Macaca mulatta; Urine
[5] = tested on: Rattus norvegicus; assay: Toxicity in po dosed albino Wistar-TNO rat at 50 times effective dose for diuresis measured after chronic administration; type: organism-based; conditions: in vivo
[6] = tested on: Rattus norvegicus; assay: Diuretic activity in po dosed albino Wistar-TNO rat measured after chronic administration; type: functional, organism-based; conditions: Urine
[7] = species on record: Rattus norvegicus; assay: Diuretic activity in experimentally-induced alkalosis rat model; type: functional, organism-based; conditions: Urine
[8] = tested on: Rattus norvegicus; assay: Diuretic activity in experimentally-induced oedema rat model; type: functional, organism-based; conditions: Urine
[9] = tested on: Hamster; assay: Diuretic activity in hamster; type: functional, organism-based; conditions: Cricetinae; Urine
[10] = tested on: Rattus norvegicus; assay: Toxicity in po dosed albino Wistar-TNO rat assessed as uric acid excretion; type: organism-based; conditions: in vivo
[11] = species on record: Rattus norvegicus; assay: Diuretic activity in experimentally-induced acidosis rat model; type: functional, organism-based; conditions: Urine
[12] = tested on: Rattus norvegicus; assay: Natriuretic activity in po dosed albino Wistar-TNO rat assessed as Na/K ratio; type: functional, organism-based
[13] = species on record: Mus musculus; assay: Diuretic activity in mouse; type: functional, organism-based; conditions: Urine
[14] = tested on: Rattus norvegicus; assay: Diuretic activity in po dosed albino Wistar-TNO rat assessed as time duration of action; type: functional, Urine
[15] = species on record: Rattus norvegicus; assay: Ratio of furosemide ED200 to compound ED200 for diuretic activity in albino Wistar-TNO rat; type: functional, Urine
[16] = species on record: Canis familiaris; assay: Natriuretic activity in non-loaded Beagle dog; type: functional, organism-based; conditions: Canis lupus familiaris
[17] = tested on: Rattus norvegicus; assay: Diuretic activity in po dosed albino Wistar-TNO rat assessed as increase in urinary volume measured for 5 hrs; type: functional, organism-based; conditions: Urine

CCOCC1COc2cc3[nH]cc(C(=O)OCC)c(=O)c3c(Cl)c2O1 (stereo not given)
ED200 [1]: 2.5 mg/kg

CCOCC1COc2c(cc3[nH]cc(C(=O)OCC)c(=O)c3c2[N+](=O)[O-])O1 (stereo not given)
ED200 [1]: 3 mg/kg

CCOCC1COc2cc3c(=O)c(C(=O)OCC)c[nH]c3c(Cl)c2O1 (stereo not given)
Activity [2]: inactive

CCOCC1COc2c(cc3[nH]cc(C(=O)OCC)c(=O)c3c2C(F)(F)F)O1 (stereo not given)
ED200 [1]: 0.5 mg/kg

CCOCC1COc2cc3c(=S)c(C(=O)OCC)c[nH]c3cc2O1 (stereo not given)
ED200 [1]: 13 mg/kg

CCOCC1COc2c(cc3[nH]cc(C(=O)OCC)c(=O)c3c2Cl)O1 (stereo not given) [QUINCARBATE]
Activity [3]: Active | Activity [4]: Active | Activity [5]: Non-toxic | Activity [6]: Active | Activity [7]: Active | Activity [8]: Active | Activity [9]: inactive | Activity [10]: Toxic | Activity [11]: Active | Activity [12]: Active | Activity [13]: inactive | ED200 [1]: 0.08 mg/kg | Time [14]: 8 h | Ratio [15]: 200 | Activity [16]: Active | Activity [17]: Dose-dependent effect

CCOCC1COc2c(cc3[nH]cc(C(=O)OCC)c(=O)c3c2Br)O1 (stereo not given)
ED200 [1]: 0.4 mg/kg

CCOCC1COc2cc3c(=O)c(C(=O)OCC)c[nH]c3cc2O1 (stereo not given)
ED200 [1]: 3.8 mg/kg

CCOCC1COc2c(cc3[nH]cc(C(=O)O)c(=O)c3c2Cl)O1 (stereo not given)
Activity [3]: Active | Activity [4]: Active | Activity [5]: Non-toxic | Activity [6]: Active | Activity [7]: Active | Activity [8]: Active | Activity [9]: inactive | Activity [10]: Toxic | Activity [11]: Active | Activity [12]: Active | Activity [13]: inactive | ED200 [1]: 0.14 mg/kg | Time [14]: 8 h | Ratio [15]: 200 | Activity [16]: Active | Activity [17]: Dose-dependent effect

NS(=O)(=O)c1cc(C(=O)O)c(NCc2ccco2)cc1Cl [FUROSEMIDE]
ED200 [1]: 28 mg/kg | Activity [17]: Dose-dependent effect

CCOCC1COc2c(c(Cl)c3[nH]cc(C(=O)OCC)c(=O)c3c2Cl)O1 (stereo not given)
Activity [2]: inactive

NS(=O)(=O)c1cc2c(cc1Cl)N=CNS2(=O)=O [CHLOROTHIAZIDE]
ED200 [1]: 30 mg/kg | Activity [17]: Dose-dependent effect

CCOCC1COc2c(cc3[nH]cc(C(=O)OCC)c(=N)c3c2Cl)O1 (stereo not given)
ED200 [1]: 2 mg/kg
